The values that follow come from patent US20220023450A1, “BONE MARROW-, RETICULOE[…]-, AND/OR LYMPH NODE-TARGETED RA[…] AND METHODS OF THEIR DIAGNOSTIC AND […] USE” (Memorial Sloan Kettering Cancer Center, priority 2018, published 2022).

For data set [1], the system named is peripheral blood cells (WBC, lymphocytes, platelets). In words: Blood cell recovery after sub-lethal total body irradiation (4 Gy). The format is in vivo, C57/BL6 mice. Here is the method: GT3-Lipo treated 24 h before TBI, GT3-Lipo treated 24 h after TBI, BMT only and no treatment.
FIGS. 3A and 3B a plot of complete blood count (CBC) data showing white blood cell (WBC) recovery after total body irradiation (TBI) (4 Gy) (FIG. 3A), and a plot of lymphocyte recovery after TBI (4 Gy) (FIG. 3B). C57BL6 mice were divided into 4 groups (5 mice per group). (Filled circle) GT3-Lipo treated 24 h before TBI. (Open square) BMT-Lipo treated 24 h before TBI. (Filled square) GT3-Lipo treated 24 h after TBI. (Open circle) No treatment. 10 mg/kg/mice GT3 were treated via i.v. and blood was collected by retro-orbital bleeding on day 0, 1, 4, 7, 14, 21, 43, 57 and 99.
White blood cells (WBC), lymphocytes, and neutrophils decreased to less than 10% of baseline counts with a nadir at day 1-4, post irradiation. […] Recovery of GT3 treated groups reached 100% at day 43. For the untreated group, WBC and lymphocyte counts recovered about 60% at day 43 and WBC and lymphocyte counts never recovered to normal level until day 99. Neutrophil counts decreased to nadir on day 4 for GT3 treated and untreated groups. […] recovered on day 7 and remained relatively the same counts until day 99. Platelet counts increased on day 1 and decreased to nadir on day 14. Platelet counts were recovered to normal level at day 43 and remained the same level until day 99 in all groups.
6- to 8-week-old C57/BL6 mice (Jackson Lab., Bar Harbor, Me.) were used for bone marrow protection from total body irradiation studies. 10 mg/kg GT3 liposomes (6% mol) were administered via i.v. 24 h pre- and post-total body irradiation (4 Gy, […], dose rate=82 cGy/min). No supportive care was given to mice after irradiation. Approximately 100 μL of blood was collected by retro-orbital blood collection for complete blood cell counts at various time points for 100 days.

Another data set relates to MDA-MB-468 tumor. Put plainly: Focal radiation therapy of tumor after GT3 administration. The format is in vivo. The conditions noted are these: 10 mg/kg GT3 prior to 11 Gy focal irradiation. From the text:
Though GT3 accumulation in the tumor is moderate, there is possibility that GT3 in the tumor might protect tumor during radiation therapy. On the contrary, there are several reports that tocotrienols suppress the proliferation of a wide variety of tumor cells in culture, such as MDA-MB-435, MCF-7, PC-3, LnCaP and DLD-1. Animal studies also have been shown that tocotrienol suppresses the growth of tumors such as 7,12-dimethylbenz(a)anthracene induced mammary tumor, HepG2, and PC-3. To address the question that GT3 protects tumors from irradiation, focal radiation therapy was performed to evaluate the effect of GT3 in the tumor when 10 mg/kg GT3 was administered prior to 11 Gy focal irradiation.

The conditions of data set [2]: C57/BL6, mouse, in vivo.
Protocol: Mice were sacrificed at the indicated time and major organs were collected and weighed. ^64Cu counting was done as soon as the organs were collected and ^3H counting was measured 5 days after mice were sacrificed. The % ID/g was calculated by measuring weight and time corrected measurement of radioactivity. n=5 per group.
For biodistribution studies, approximately 5.5 MBg of [^64Cu]-DOTA-Bz-DSPE-labeled liposome and 370 kBq of ^3H-GT3 incorporated liposome was intravenously administered to C57/BL6 athymic nude mice (n=5 per group) via tail vein injection. Mice were sacrificed at 24 or 48 h after injection and major organs were collected and placed in pre-weighed culture tubes or Eppendorf tubes. To collect bone marrow, the femur was dipped into liquid nitrogen and one of the epiphyses was carefully removed. A 30 mL syringe with gauge 30½ needles was inserted into one end of the femur; air was blown and bone marrow was collected in the same tubes for radioactivity counting in a gamma counter (PerkinElmer, Inc., Waltham, Mass.). For ^3H activity measurement, major organs were collected in pre-weighed scintillation vials and 500 uL of Soluene®-350 were added. After overnight incubation at 37° C., 4.5 mL of Ecoscint A were added, mixed well, and counted in scintillation counter. Data were presented as percent injected dose per gram (% ID/g) of tissue.

Where two headings read alike, the source gives them in different places.

As to `CC(C)=CCC/C(C)=C/CC/C(C)=C/CC[C@]1(C)CCc2cc(O)c(C)c(C)c2O1` [GT3, (2R)-2,7,8-trimethyl-2-[(3E,7E)-4,8,12-trimethyltrideca-3,7,11-trienyl]-3,4-dihydrochromen-6-ol], in data set [1] (4 Gy TBI), the “platelet counts compared with untreated group” value is reported as “no significant differences”. In addition, the “recovery of WBC and lymphocytes compared with untreated group” value in data set [1] (4 Gy TBI, 10 mg/kg GT3 liposomes i.v. 24 h before or after TBI) is “faster and more complete”. Moreover, the “recovery of WBC and lymphocyte counts” value in data set [1] (day 43 after 4 Gy TBI, 10 mg/kg GT3 liposomes i.v.) was found to be 100%. For the same molecule, in the data set with MDA-MB-468 tumor, the “effect on tumor response to focal radiation” value is given as “does not protect nor sensitize”.
With `CC(C)=CCC/C(C)=C/CC/C(C)=C/CC[C@]1(C)CCc2cc(O)c(C)c(C)c2O1` [[^3H]-GT3], the “loss of active drug during the tissue targeting process” value in data set [2] was “approximately 50%”. For the same molecule, in data set [2] (24 h), the “Biodistribution, Marrow” value is given as 4.28±1.57 % ID/g and the “Biodistribution, Spleen” value worked out at 7.95±1.63 % ID/g. In data set [2] (48 h), the “Biodistribution, Marrow” value is on record as 7.44±2.81 % ID/g and the “Biodistribution, Spleen” value is given as 8.26±1.86 % ID/g.
